Literature values in patent publication US11701338B2, “Use of gTso thal in manufacturing medicament for promotion of MS-275 to cross blood-brain barrier” (Northwest Institute of Plateau Biology, Chinese Academy of …, priority 2020, dated 2023).

Conditions: after oral or intravenous administration

For `Nc1ccccc1NC(=O)c1ccc(CNC(=O)OCc2cccnc2)cc1` [MS-275], which “share of the dosage of MS-275 that crosses the BBB into the brain” value is on record?
The value was “around 15%”.
